Assay results as given in patent US20050112573A1, “Method of detecting toxic substance” (priority 2001, published 2005).

Tested on: yeast genes (level of expressed mRNA)
Assay: DNA chip analysis of expressed mRNA of yeast genes after 2 h culture with a toxic chemical substance
Type: cell-based, Saccharomyces cerevisiae S288C
Protocol: Yeast (Saccharomyces cerevtisiae S288C (α SUC2mal mel gap2 CUP1)) were cultured at 25° C. on YPD medium (yeast extract 1%, polypepton 2%, glucose 2%). One of toxic chemical substances was added to the cell at logarithmic growth phase, and the cell was further cultured for two hours. Cell was cultured without any chemical substance in the same condition, and was used as control. Concentrations of the chemical substances were defined to inhibit the growth of the yeast but not lead to death.
After the completion of cultivation, the culture was centrifuged to collect the cells. To the cells, sodium acetate buffer (50 mM sodium acetate, 10 mM EDTA, 1% SDS) was added, and the mixture was shaken at 65° C. for five minutes, followed by returning to room temperature, and obtaining the supernatant, which procedure was repeated two times. To the supernatant, ½ amount of a solution of phenol/chloroform was added, and the mixture was centrifuged to give a supernatant, which was added with an equal amount of chloroform, and the mixture was centrifuged to give a supernatant. To the supernatant, an equal amount of isopropanol containing 0.3 M sodium acetate was added, and the mixture was allowed to stand at room temperature for 30 minutes, after which the mixture was centrifuged to give a sediment of the whole RNAs. Seventy % ethanol was added to the sediment, and the mixture was again centrifuged to give a sediment, which was then dried and dissolved in water. mRNA was isolated from the whole RNAs as followings. In view of the fact that a poly A chain is attached to the 3′ terminus of mRNA, a polynucleotide having a poly T structure which was immobilized on the surface of latex beads was used to trap the mRNA, and then the mRNA was washed and eluted with spine column (Oligotex-dT30<Super>mRNA Purification Kit, Takara). Reverse transcription of the mRNA was conducted with a reverse transcriptase (Super Script II Reverse Transcriptase; catalogue No. 18064-014, GibcoBRL) using fluorescence-labeled nucleotides to give cDNAs that were introduced with Cy3-dUTP or Cy5-dUTP during the reverse transcription.
The labeled cDNAs were dissolved in TE buffer (10 mM Tris-HCl/1 mM EDTA, pH8.0), and the solution was dropped on the DNA chip containing the whole genes of yeast (DNA Chip Research Inc. Japan) so that the cDNAs were hybridized on the DNA chip at 65° C. for over 12 hours. The fluoresces intensity of the DNA chip was read with a scanner, and the ratio relative to the fluorescence intensity resulting from the absence of chemical substance was estimated as the following, which is shown in Tables 1 to 9: [formula]
In the Tables, “Intensity” indicated in the rightmost column is a value of the level of expressed mRNA of each gene in control cells as divided by the average level of the expressions of the whole genes.

CCCCCCCCCCCCOS(=O)(=O)[O-].[Na+] [(18), sodium lauryl sulfate]
1.6: The level of expressed mRNA in the presence of chemical substance/absence: YJR044C (gene YJR044C) | The level of expressed mRNA in the presence of chemical substance/absence: YLR392C (gene YLR392C) | level of expressed mRNA in the presence of chemical substance/in its absence (gene YML110C)
2.0: level of expressed mRNA in the presence of chemical substance/in its absence (gene YNR019W)
0.7: The level of expressed mRNA in the presence of chemical substance/absence: YHR095W (gene YHR095W) | The level of expressed mRNA in the presence of chemical substance/absence: YIL108W (gene YIL108W) | level of expressed mRNA in the presence of chemical substance/in its absence (gene YLR180W) | level of expressed mRNA in the presence of chemical substance/in its absence (gene YMR296C) | The level of expressed mRNA in the presence of chemical substance/absence: YOR088W (gene YOR088W)
2.4: The level of expressed mRNA in the presence of chemical substance/absence: YNL194C (gene YNL194C) | level of expressed mRNA in the presence of chemical substance/in its absence (gene YOL126C)
1.2: level of expressed mRNA in the presence of chemical substance/in its absence (gene YIL033C) | The level of expressed mRNA in the presence of chemical substance/absence: YMR115W (gene YMR115W) | level of expressed mRNA in the presence of chemical substance/in its absence (gene YNL130C) | The level of expressed mRNA in the presence of chemical substance/absence: YNL212W (gene YNL212W) | The level of expressed mRNA in the presence of chemical substance/absence: YNL253W (gene YNL253W)
0.9: The level of expressed mRNA in the presence of chemical substance/absence: YGR293C (gene YGR293C) | The level of expressed mRNA in the presence of chemical substance/absence: YHL037C (gene YHL037C) | The level of expressed mRNA in the presence of chemical substance/absence: YHR105W (gene YHR105W) | The level of expressed mRNA in the presence of chemical substance/absence: YHR181W (gene YHR181W) | level of expressed mRNA in the presence of chemical substance/in its absence (gene YIR035C) | The level of expressed mRNA in the presence of chemical substance/absence: YJL037W (gene YJL037W) | level of expressed mRNA in the presence of chemical substance/in its absence (gene YJL088W) | The level of expressed mRNA in the presence of chemical substance/absence: YJR030C (gene YJR030C) | The level of expressed mRNA in the presence of chemical substance/absence: YKL059C (gene YKL059C) | level of expressed mRNA in the presence of chemical substance/in its absence (gene YNL104C) | level of expressed mRNA in the presence of chemical substance/in its absence (gene YNL106C) | The level of expressed mRNA in the presence of chemical substance/absence: YNL200C (gene YNL200C) | The level of expressed mRNA in the presence of chemical substance/absence: YOR155C (gene YOR155C) | The level of expressed mRNA in the presence of chemical substance/absence: YOR253W (gene YOR253W)
2.2: level of expressed mRNA in the presence of chemical substance/in its absence (gene YMR271C) | level of expressed mRNA in the presence of chemical substance/in its absence (gene YNR059W)
1.5: level of expressed mRNA in the presence of chemical substance/in its absence (gene YJL132W) | The level of expressed mRNA in the presence of chemical substance/absence: YKL100C (gene YKL100C) | The level of expressed mRNA in the presence of chemical substance/absence: YML118W (gene YML118W) | level of expressed mRNA in the presence of chemical substance/in its absence (gene YNL012W)
0.6: The level of expressed mRNA in the presence of chemical substance/absence: YIL127C (gene YIL127C) | The level of expressed mRNA in the presence of chemical substance/absence: YLR338W (gene YLR338W) | The level of expressed mRNA in the presence of chemical substance/absence: YLR339C (gene YLR339C) | The level of expressed mRNA in the presence of chemical substance/absence: YNL191W (gene YNL191W)
3.6: The level of expressed mRNA in the presence of chemical substance/absence: YHL021C (gene YHL021C)
2.1: level of expressed mRNA in the presence of chemical substance/in its absence (gene YNR002C)
2.6: level of expressed mRNA in the presence of chemical substance/in its absence (gene YMR105C)
0.8: level of expressed mRNA in the presence of chemical substance/in its absence (gene YIL167W) | The level of expressed mRNA in the presence of chemical substance/absence: YKR040C (gene YKR040C) | The level of expressed mRNA in the presence of chemical substance/absence: YML013W (gene YML013W) | level of expressed mRNA in the presence of chemical substance/in its absence (gene YMR189W) | The level of expressed mRNA in the presence of chemical substance/absence: YNL176C (gene YNL176C) | The level of expressed mRNA in the presence of chemical substance/absence: YNL276C (gene YNL276C) | The level of expressed mRNA in the presence of chemical substance/absence: YNR051C (gene YNR051C) | level of expressed mRNA in the presence of chemical substance/in its absence (gene YOL058W)
2.3: level of expressed mRNA in the presence of chemical substance/in its absence (gene YJR159W) | level of expressed mRNA in the presence of chemical substance/in its absence (gene YOR099W)
1.7: level of expressed mRNA in the presence of chemical substance/in its absence (gene YJR148W) | The level of expressed mRNA in the presence of chemical substance/absence: YLR097C (gene YLR097C) | level of expressed mRNA in the presence of chemical substance/in its absence (gene YOL153C)
1.3: level of expressed mRNA in the presence of chemical substance/in its absence (gene YHR092C) | The level of expressed mRNA in the presence of chemical substance/absence: YHR134W (gene YHR134W) | level of expressed mRNA in the presence of chemical substance/in its absence (gene YHR137W) | The level of expressed mRNA in the presence of chemical substance/absence: YIL165C (gene YIL165C) | The level of expressed mRNA in the presence of chemical substance/absence: YML041C (gene YML041C) | The level of expressed mRNA in the presence of chemical substance/absence: YMR114C (gene YMR114C) | The level of expressed mRNA in the presence of chemical substance/absence: YMR160W (gene YMR160W) | The level of expressed mRNA in the presence of chemical substance/absence: YMR258C (gene YMR258C) | level of expressed mRNA in the presence of chemical substance/in its absence (gene YNL037C) | level of expressed mRNA in the presence of chemical substance/in its absence (gene YNL169C) | The level of expressed mRNA in the presence of chemical substance/absence: YNL181W (gene YNL181W) | level of expressed mRNA in the presence of chemical substance/in its absence (gene YOL157C) | level of expressed mRNA in the presence of chemical substance/in its absence (gene YOR136W)
3.2: level of expressed mRNA in the presence of chemical substance/in its absence (gene YKL067W) | level of expressed mRNA in the presence of chemical substance/in its absence (gene YLR142W)
0.5: The level of expressed mRNA in the presence of chemical substance/absence: YKL097C (gene YKL097C) | level of expressed mRNA in the presence of chemical substance/in its absence (gene YLR300W)
1.8: level of expressed mRNA in the presence of chemical substance/in its absence (gene YHR190W) | The level of expressed mRNA in the presence of chemical substance/absence: YNL265C (gene YNL265C)
1.0: The level of expressed mRNA in the presence of chemical substance/absence: YHL006C (gene YHL006C) | The level of expressed mRNA in the presence of chemical substance/absence: YHR083W (gene YHR083W) | The level of expressed mRNA in the presence of chemical substance/absence: YHR180W (gene YHR180W) | level of expressed mRNA in the presence of chemical substance/in its absence (gene YIL154C) | The level of expressed mRNA in the presence of chemical substance/absence: YJL017W (gene YJL017W) | The level of expressed mRNA in the presence of chemical substance/absence: YKL090W (gene YKL090W) | The level of expressed mRNA in the presence of chemical substance/absence: YLR226W (gene YLR226W) | level of expressed mRNA in the presence of chemical substance/in its absence (gene YLR273C) | level of expressed mRNA in the presence of chemical substance/in its absence (gene YLR307W) | The level of expressed mRNA in the presence of chemical substance/absence: YLR415C (gene YLR415C) | The level of expressed mRNA in the presence of chemical substance/absence: YLR427W (gene YLR427W) | The level of expressed mRNA in the presence of chemical substance/absence: YML029W (gene YML029W) | The level of expressed mRNA in the presence of chemical substance/absence: YNL058C (gene YNL058C) | The level of expressed mRNA in the presence of chemical substance/absence: YNL063W (gene YNL063W) | level of expressed mRNA in the presence of chemical substance/in its absence (gene YNL322C) | The level of expressed mRNA in the presence of chemical substance/absence: YOL030W (gene YOL030W)
4.0: level of expressed mRNA in the presence of chemical substance/in its absence (gene YNL231C)
1.9: level of expressed mRNA in the presence of chemical substance/in its absence (gene YJL196C) | The level of expressed mRNA in the presence of chemical substance/absence: YKL094W (gene YKL094W) | The level of expressed mRNA in the presence of chemical substance/absence: YMR071C (gene YMR071C)
1.4: level of expressed mRNA in the presence of chemical substance/in its absence (gene YHR037W) | level of expressed mRNA in the presence of chemical substance/in its absence (gene YJR142W) | The level of expressed mRNA in the presence of chemical substance/absence: YKL051W (gene YKL051W) | The level of expressed mRNA in the presence of chemical substance/absence: YML079W (gene YML079W) | level of expressed mRNA in the presence of chemical substance/in its absence (gene YMR272C) | The level of expressed mRNA in the presence of chemical substance/absence: YNL026W (gene YNL026W) | The level of expressed mRNA in the presence of chemical substance/absence: YOL026C (gene YOL026C) | level of expressed mRNA in the presence of chemical substance/in its absence (gene YOL143C)
1.1: The level of expressed mRNA in the presence of chemical substance/absence: YJL032W (gene YJL032W) | The level of expressed mRNA in the presence of chemical substance/absence: YJL049W (gene YJL049W) | The level of expressed mRNA in the presence of chemical substance/absence: YJL097W (gene YJL097W) | level of expressed mRNA in the presence of chemical substance/in its absence (gene YKR039W) | The level of expressed mRNA in the presence of chemical substance/absence: YMR068W (gene YMR068W) | level of expressed mRNA in the presence of chemical substance/in its absence (gene YNL045W) | level of expressed mRNA in the presence of chemical substance/in its absence (gene YNR033W) | The level of expressed mRNA in the presence of chemical substance/absence: YOR022C (gene YOR022C) | The level of expressed mRNA in the presence of chemical substance/absence: YOR087W (gene YOR087W) | level of expressed mRNA in the presence of chemical substance/in its absence (gene YOR130C) | The level of expressed mRNA in the presence of chemical substance/absence: YOR138C (gene YOR138C)
